For assay [1], the target named is Mast/stem cell growth factor receptor Kit (Homo sapiens, UniProt P10721). Kind of assay: Kinase Selectivity Assay. The source says:
(§1) The specificity of LFM-A13 was further examined against a broad panel of serine-threonine kinases and tyrosine kinases using the KinaseProfiler Assay protocols from Upstate (Charlottesville, Virginia).

Assay [2] concerns the target T1, Serine/threonine-protein kinase Chk1 (Homo sapiens, UniProt O14757).
T1 sequence (O14757 whole entry): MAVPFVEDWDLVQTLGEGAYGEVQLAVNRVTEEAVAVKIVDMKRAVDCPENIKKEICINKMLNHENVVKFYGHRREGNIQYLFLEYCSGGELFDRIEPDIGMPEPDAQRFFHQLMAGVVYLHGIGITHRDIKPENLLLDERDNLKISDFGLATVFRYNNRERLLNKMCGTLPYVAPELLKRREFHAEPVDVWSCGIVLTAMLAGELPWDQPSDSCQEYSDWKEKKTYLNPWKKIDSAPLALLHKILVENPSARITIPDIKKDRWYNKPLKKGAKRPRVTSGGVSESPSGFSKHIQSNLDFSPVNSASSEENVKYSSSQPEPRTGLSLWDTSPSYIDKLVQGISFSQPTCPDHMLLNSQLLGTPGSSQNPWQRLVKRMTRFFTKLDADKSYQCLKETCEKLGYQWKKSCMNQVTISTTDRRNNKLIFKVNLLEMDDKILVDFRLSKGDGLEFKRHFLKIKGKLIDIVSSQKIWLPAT
Nature of the assay: Kinase Selectivity Assay.
Excerpt: as §1

Assay [3] concerns the target T2, Cytoplasmic tyrosine-protein kinase BMX (Homo sapiens, UniProt P51813).
T2 sequence (P51813 whole entry): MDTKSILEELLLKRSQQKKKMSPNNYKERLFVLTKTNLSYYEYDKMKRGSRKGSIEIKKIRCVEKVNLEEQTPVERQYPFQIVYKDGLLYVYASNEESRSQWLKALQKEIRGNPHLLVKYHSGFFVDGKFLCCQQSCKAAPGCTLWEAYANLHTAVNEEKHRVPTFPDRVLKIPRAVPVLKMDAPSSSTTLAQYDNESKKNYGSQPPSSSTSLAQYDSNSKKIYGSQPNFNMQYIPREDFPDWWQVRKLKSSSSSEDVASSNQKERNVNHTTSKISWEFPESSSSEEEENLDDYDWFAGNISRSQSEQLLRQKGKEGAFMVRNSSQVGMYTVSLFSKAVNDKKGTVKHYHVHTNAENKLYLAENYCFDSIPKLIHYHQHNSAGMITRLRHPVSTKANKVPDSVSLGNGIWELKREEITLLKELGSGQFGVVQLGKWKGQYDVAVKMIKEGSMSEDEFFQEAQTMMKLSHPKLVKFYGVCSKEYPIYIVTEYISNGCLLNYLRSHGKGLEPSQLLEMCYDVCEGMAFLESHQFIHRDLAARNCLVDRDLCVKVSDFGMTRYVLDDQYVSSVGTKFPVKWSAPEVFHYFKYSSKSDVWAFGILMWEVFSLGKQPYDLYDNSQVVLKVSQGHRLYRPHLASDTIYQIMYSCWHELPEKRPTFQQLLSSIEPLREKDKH
Kind of assay: Kinase Selectivity Assay.
Excerpt: as §1

Assay [4] addresses Tyrosine-protein kinase Fyn (Homo sapiens, UniProt P06241). Kind of assay: Kinase Selectivity Assay.
Excerpt: as §1

The target in assay [5] is Hepatocyte growth factor receptor (Homo sapiens, UniProt P08581). Nature of the assay: Kinase Selectivity Assay.
Excerpt: as §1

Assay [6] deals with Cyclin-dependent kinase/G2/mitotic-specific cyclin- 1 (Homo sapiens, UniProt P06493). Nature of the assay: Kinase Selectivity Assay.
Excerpt: as §1

The target in assay [7] is Protein-tyrosine kinase 6 (Homo sapiens, UniProt Q13882). Nature of the assay: Kinase Selectivity Assay.
Excerpt: as §1

The target of assay [8] is Cyclin-A2/Cyclin-dependent kinase 2 (Homo sapiens, UniProt P24941). Nature of the assay: Kinase Selectivity Assay.
Excerpt: as §1

Assay [9] deals with Serine/threonine-protein kinase PLK1 (Xenopus laevis, UniProt P70032). Kind of assay: Plx1 Kinase Inhibition Assay. The settings on record: pH 7.5; 22 °C. Here is the method:
Purified Plx1 was first incubated with different concentrations of LFM-A13. The substrate, GST-Cdc25 peptide (254-316) and [gamma-32P]ATP were added and the kinase reaction allowed to proceed for 15 min at room temperature. After incubation, incorporation of radioactivity to the substrate was further quantified.

Assay [10] addresses Serine/threonine-protein kinase PLK3 (Homo sapiens, UniProt Q9H4B4). Nature of the assay: PLK3 Kinase Inhibition Assay. The settings on record: pH 7; 22 °C. Here is the method: The mode of human PLK3 inhibition by LFM-A13 was examined in titration experiments using increasing concentrations of [gamma-32P]ATP and purified N-terminal His6-tagged recombinant human PLK3. The Ki of PLK3 by LFM-A13 was calculated from the reciprocal plots of the intensity of phosphorylation of the substrate versus the concentration of the inhibitor. From this Dixon plot, the Ki represents the dissociation constants of the EI complex, which is determined by the point of linear intersection.

Chain of Serine/threonine-protein kinase PLK3 (Q9H4B4 whole entry): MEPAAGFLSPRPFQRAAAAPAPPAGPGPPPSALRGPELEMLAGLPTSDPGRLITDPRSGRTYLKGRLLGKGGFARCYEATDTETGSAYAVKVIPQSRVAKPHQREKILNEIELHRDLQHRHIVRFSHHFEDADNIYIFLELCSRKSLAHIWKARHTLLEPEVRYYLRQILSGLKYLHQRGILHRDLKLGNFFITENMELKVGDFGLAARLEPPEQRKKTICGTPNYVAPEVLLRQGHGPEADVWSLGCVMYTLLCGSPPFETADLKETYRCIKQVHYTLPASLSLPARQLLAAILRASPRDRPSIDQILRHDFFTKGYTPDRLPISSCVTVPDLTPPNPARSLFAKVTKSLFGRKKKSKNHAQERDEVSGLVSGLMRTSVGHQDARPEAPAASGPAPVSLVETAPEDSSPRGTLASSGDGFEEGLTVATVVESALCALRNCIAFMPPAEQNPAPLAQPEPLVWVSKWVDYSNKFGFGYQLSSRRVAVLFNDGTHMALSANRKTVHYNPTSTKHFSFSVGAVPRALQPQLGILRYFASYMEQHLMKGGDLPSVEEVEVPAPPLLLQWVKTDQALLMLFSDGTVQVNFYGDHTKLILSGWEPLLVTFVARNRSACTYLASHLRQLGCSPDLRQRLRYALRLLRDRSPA
Chain of Mast/stem cell growth factor receptor Kit (P10721 whole entry): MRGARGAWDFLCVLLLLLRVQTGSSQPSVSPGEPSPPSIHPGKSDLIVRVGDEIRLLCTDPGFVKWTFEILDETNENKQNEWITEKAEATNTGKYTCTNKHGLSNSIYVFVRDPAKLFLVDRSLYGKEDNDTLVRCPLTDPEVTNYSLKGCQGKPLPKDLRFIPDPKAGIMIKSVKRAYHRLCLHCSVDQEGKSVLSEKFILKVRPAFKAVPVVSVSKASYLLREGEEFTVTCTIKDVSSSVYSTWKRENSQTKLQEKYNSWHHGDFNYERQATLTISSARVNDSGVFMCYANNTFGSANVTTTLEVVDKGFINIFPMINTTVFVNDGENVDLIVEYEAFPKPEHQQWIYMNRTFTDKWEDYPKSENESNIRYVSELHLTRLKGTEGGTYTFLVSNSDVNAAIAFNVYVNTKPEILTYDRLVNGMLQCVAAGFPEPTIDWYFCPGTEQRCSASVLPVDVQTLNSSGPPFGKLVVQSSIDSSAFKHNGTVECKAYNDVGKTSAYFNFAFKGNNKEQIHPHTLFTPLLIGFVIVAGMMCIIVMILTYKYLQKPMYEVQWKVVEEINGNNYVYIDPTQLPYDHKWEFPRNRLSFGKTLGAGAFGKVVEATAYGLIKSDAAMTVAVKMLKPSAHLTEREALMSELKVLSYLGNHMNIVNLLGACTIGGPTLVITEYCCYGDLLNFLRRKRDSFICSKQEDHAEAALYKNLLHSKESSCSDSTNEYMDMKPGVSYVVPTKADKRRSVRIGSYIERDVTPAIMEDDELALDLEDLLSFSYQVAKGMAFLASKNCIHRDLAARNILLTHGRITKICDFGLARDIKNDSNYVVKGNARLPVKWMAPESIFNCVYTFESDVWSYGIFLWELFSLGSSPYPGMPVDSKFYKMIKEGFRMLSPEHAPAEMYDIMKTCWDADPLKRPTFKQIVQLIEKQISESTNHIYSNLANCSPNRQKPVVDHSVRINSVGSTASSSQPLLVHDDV
Chain of Serine/threonine-protein kinase PLK1 (P70032 whole entry): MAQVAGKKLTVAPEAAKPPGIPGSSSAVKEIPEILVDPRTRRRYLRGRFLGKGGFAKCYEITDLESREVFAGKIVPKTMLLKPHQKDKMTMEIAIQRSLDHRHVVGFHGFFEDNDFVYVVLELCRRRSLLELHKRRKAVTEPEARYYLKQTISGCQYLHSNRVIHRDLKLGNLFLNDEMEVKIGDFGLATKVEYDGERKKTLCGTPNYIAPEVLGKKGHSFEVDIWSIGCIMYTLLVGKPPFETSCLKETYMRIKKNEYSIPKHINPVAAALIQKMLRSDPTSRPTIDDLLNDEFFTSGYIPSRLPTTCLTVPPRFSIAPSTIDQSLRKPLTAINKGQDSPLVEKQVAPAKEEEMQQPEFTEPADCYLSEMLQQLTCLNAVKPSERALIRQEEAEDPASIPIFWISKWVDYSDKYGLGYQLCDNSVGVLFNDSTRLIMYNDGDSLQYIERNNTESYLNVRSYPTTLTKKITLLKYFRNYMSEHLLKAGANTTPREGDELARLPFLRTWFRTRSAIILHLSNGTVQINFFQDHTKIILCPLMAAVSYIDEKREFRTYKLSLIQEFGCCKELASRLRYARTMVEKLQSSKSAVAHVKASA
Chain of Cyclin-dependent kinase/G2/mitotic-specific cyclin- 1 (P06493 whole entry): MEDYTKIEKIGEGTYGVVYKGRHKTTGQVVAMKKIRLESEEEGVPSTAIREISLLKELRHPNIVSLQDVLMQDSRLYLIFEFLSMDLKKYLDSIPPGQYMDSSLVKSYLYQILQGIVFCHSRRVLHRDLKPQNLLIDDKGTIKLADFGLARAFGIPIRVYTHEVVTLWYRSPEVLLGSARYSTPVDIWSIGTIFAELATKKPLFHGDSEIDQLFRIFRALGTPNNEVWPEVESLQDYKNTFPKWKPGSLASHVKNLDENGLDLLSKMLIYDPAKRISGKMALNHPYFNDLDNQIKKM
Chain of Cyclin-dependent kinase/G2/mitotic-specific cyclin- 1 (P14635 whole entry, further chain): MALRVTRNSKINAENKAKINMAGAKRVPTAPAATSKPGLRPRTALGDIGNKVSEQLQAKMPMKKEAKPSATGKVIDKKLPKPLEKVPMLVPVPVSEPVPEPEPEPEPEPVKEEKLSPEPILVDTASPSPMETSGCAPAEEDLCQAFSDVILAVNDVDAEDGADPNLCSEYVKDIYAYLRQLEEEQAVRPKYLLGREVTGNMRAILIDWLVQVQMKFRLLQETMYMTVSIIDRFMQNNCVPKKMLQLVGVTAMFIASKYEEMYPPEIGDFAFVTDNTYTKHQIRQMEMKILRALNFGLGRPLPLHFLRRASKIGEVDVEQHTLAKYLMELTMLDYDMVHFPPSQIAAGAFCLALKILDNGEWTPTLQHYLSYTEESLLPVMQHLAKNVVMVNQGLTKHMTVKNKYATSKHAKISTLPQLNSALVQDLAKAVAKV
Chain of Hepatocyte growth factor receptor (P08581 whole entry): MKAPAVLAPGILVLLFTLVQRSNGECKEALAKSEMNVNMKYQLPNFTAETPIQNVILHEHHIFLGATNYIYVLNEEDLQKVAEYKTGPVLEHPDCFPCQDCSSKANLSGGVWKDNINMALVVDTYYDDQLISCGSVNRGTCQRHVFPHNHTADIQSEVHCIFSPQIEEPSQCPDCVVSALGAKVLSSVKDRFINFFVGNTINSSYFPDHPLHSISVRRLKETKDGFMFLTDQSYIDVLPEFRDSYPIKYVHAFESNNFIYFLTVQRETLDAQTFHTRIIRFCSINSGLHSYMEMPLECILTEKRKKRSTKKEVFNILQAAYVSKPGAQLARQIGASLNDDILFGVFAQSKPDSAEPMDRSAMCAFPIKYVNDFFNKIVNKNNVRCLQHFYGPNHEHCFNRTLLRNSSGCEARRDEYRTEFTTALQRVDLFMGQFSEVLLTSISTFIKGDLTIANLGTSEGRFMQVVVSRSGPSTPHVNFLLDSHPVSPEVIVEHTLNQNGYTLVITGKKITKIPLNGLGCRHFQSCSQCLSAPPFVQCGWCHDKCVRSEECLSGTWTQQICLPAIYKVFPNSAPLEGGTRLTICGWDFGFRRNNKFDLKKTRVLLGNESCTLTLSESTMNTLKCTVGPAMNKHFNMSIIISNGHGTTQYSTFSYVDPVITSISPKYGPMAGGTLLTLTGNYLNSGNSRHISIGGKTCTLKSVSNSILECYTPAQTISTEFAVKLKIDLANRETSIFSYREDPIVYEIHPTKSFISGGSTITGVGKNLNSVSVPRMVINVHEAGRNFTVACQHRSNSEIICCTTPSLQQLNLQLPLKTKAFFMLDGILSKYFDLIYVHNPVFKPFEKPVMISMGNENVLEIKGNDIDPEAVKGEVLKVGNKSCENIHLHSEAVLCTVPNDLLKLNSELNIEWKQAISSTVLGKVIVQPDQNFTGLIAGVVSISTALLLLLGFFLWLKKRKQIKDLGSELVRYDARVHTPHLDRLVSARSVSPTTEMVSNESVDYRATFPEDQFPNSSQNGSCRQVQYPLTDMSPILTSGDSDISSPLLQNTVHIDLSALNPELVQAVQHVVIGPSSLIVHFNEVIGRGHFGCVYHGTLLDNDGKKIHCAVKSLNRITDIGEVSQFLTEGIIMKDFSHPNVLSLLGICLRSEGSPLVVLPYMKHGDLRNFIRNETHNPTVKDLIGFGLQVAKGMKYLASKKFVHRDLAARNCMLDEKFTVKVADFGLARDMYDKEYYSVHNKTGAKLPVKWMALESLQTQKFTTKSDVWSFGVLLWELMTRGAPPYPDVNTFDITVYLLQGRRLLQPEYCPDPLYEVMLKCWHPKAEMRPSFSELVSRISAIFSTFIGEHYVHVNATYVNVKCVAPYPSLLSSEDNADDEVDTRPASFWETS
Chain of Tyrosine-protein kinase Fyn (P06241 whole entry): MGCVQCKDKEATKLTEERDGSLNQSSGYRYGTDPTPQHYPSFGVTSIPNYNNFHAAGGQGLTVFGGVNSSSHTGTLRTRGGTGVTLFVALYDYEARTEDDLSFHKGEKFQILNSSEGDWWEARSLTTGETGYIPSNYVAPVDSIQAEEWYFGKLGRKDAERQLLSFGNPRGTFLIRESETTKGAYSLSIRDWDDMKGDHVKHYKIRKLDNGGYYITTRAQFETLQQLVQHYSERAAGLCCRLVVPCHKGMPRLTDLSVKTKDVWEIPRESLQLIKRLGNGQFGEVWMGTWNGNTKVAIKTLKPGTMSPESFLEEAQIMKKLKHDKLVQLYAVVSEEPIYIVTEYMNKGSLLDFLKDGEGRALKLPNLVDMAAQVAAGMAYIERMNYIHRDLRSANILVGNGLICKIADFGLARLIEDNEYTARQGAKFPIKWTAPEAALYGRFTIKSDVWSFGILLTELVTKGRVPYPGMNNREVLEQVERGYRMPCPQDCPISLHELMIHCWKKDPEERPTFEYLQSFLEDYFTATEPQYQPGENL

What is called IC50 is the concentration that inhibits the measured activity by half. A high value points to a need for much substance. For orientation: Ki means a measure of affinity in units of concentration, obtained from inhibition or displacement. A higher Ki goes with weaker binding. Take `CC(=O)C(C#N)C(=O)Nc1cc(Br)ccc1Br` (stereo unspecified): the IC50 in assay [1] was more than 500 µM; in assay [2] it was more than 500 µM; in assay [3], 281 µM; in assay [4], 240 µM; in assay [5] it was 215 µM; in [6] it was more than 500 µM. Moreover, the IC50 in [7] was 267 µM; in assay [8], more than 500 µM; in assay [9], 10 µM; in [10], 61 µM. The compound further displayed a Ki in assay [10] of 7.2 µM.

The record behind these values is BindingDB's records for doi:10.1016/j.bmc.2006.10.050 (Paradigm Pharmaceuticals, 2007).
